Patent publication US5935972A, “Benzofuran derivatives as tachykinin antagonists” (Glaxo Group Limited, priority 1997, dated 1999)
Structures can show the parent of a compound that is named as a salt.

System: radiation-induced emesis
Assay: radiation-induced emesis in the ferret
Format: in vivo
Conditions: whole body irradiation 2 Grey, dose 0.3 mg/kg s.c. immediately after irradiation
Description: In this model of emesis the onset of retching and vomiting occurs approximately 20 minutes after whole body irradiation (2 Grey.ident.200 Rads). The test compound is administered (e.g. i.p, p.o., i.v., s.c) immediately after irradiation and its effect on emesis determined by comparison with appropriate controls.

`Cc1nnnn1-c1cc(CN[C@H]2CCCN[C@H]2c2ccccc2)c2occc2c1` [Example 1, [5-(5-Methyl-tetrazol-1-yl)-benzofuran-7-ylmethyl]-(2S-phenyl-piperidin-3S-yl)-amine dihydrochloride] was tested, and the “inhibition of radiation-induced emesis” value was “inhibited radiation-induced emesis”.
